Patent publication US20090318351A1, “METHOD OF TREATING ACUTE ST-ELEVATION MYOCARDIAL INFARCTION WITH A DELTA PKC ANTAGONIST” (priority 2008, published 2009)

Experiment: Plasma stability of capped peptides (KAI-9706 modified at amino and carboxy termini)
Settings: rat
Protocol: Plasma stability of capped peptides was compared. KAI-9706 was modified step-wise at its amino and carboxy termini. Plasma stability as measured by the percent of peptide composition remaining after 15 minutes.

Row | Structure (SMILES) | remaining at 0.25 h
1 | CC[C@H](C)[C@H](NC(=O)[C@@H]1CCCN1C(=O)[C@H](C)NC(=O)[C@H](CC(=O)O)NC(=O)[C@H](Cc1c[nH]cn1)NC(=O)[C@H](CSSC[C@H](NC(C)=O)C(=O)N[C@@H](Cc1ccc(O)cc1)C(=O)NCC(=O)N[C@@H](CCCNC(=N)N)C(=O)N[C@@H](CCCCN)C(=O)N[C@@H](CCCCN)C(=O)N[C@@H](CCCNC(=N)N)C(=O)N[C@@H](CCCNC(=N)N)C(=O)N[C@@H](CCC(N)=O)C(=O)N[C@@H](CCCNC(=N)N)C(=O)N[C@@H](CCCNC(=N)N)C(=O)N[C@@H](CCCNC(=N)N)C(N)=O)NC(C)=O)C(=O)NCC(=O)N[C@@H](Cc1ccc(O)cc1)C(=O)N[C@@H](CC(=O)O)C(N)=O [KAI-9706 carrier Ac—NH2 cargo Ac—NH2] | 90%
2 | CC[C@H](C)[C@H](NC(=O)[C@@H]1CCCN1C(=O)[C@H](C)NC(=O)[C@H](CC(=O)O)NC(=O)[C@H](Cc1c[nH]cn1)NC(=O)[C@H](CSSC[C@H](NC(C)=O)C(=O)N[C@@H](Cc1ccc(O)cc1)C(=O)NCC(=O)N[C@@H](CCCNC(=N)N)C(=O)N[C@@H](CCCCN)C(=O)N[C@@H](CCCCN)C(=O)N[C@@H](CCCNC(=N)N)C(=O)N[C@@H](CCCNC(=N)N)C(=O)N[C@@H](CCC(N)=O)C(=O)N[C@@H](CCCNC(=N)N)C(=O)N[C@@H](CCCNC(=N)N)C(=O)N[C@@H](CCCNC(=N)N)C(N)=O)NC(C)=O)C(=O)NCC(=O)N[C@@H](Cc1ccc(O)cc1)C(=O)N[C@@H](CC(=O)O)C(=O)O [KAI-9706 carrier Ac—NH2 cargo Ac—OH] | 93%
3 | CC[C@H](C)[C@H](NC(=O)[C@@H]1CCCN1C(=O)[C@H](C)NC(=O)[C@H](CC(=O)O)NC(=O)[C@H](Cc1c[nH]cn1)NC(=O)[C@@H](N)CSSC[C@H](NC(C)=O)C(=O)N[C@@H](Cc1ccc(O)cc1)C(=O)NCC(=O)N[C@@H](CCCNC(=N)N)C(=O)N[C@@H](CCCCN)C(=O)N[C@@H](CCCCN)C(=O)N[C@@H](CCCNC(=N)N)C(=O)N[C@@H](CCCNC(=N)N)C(=O)N[C@@H](CCC(N)=O)C(=O)N[C@@H](CCCNC(=N)N)C(=O)N[C@@H](CCCNC(=N)N)C(=O)N[C@@H](CCCNC(=N)N)C(N)=O)C(=O)NCC(=O)N[C@@H](Cc1ccc(O)cc1)C(=O)N[C@@H](CC(=O)O)C(N)=O [KAI-9706 carrier Ac—NH2 cargo H—NH2] | 90%
4 | CC[C@H](C)[C@H](NC(=O)[C@@H]1CCCN1C(=O)[C@H](C)NC(=O)[C@H](CC(=O)O)NC(=O)[C@H](Cc1c[nH]cn1)NC(=O)[C@@H](N)CSSC[C@H](NC(C)=O)C(=O)N[C@@H](Cc1ccc(O)cc1)C(=O)NCC(=O)N[C@@H](CCCNC(=N)N)C(=O)N[C@@H](CCCCN)C(=O)N[C@@H](CCCCN)C(=O)N[C@@H](CCCNC(=N)N)C(=O)N[C@@H](CCCNC(=N)N)C(=O)N[C@@H](CCC(N)=O)C(=O)N[C@@H](CCCNC(=N)N)C(=O)N[C@@H](CCCNC(=N)N)C(=O)N[C@@H](CCCNC(=N)N)C(N)=O)C(=O)NCC(=O)N[C@@H](Cc1ccc(O)cc1)C(=O)N[C@@H](CC(=O)O)C(=O)O [KAI-9706 carrier Ac—NH2 cargo H—OH] | 92%
5 | CC[C@H](C)[C@H](NC(=O)[C@@H]1CCCN1C(=O)[C@H](C)NC(=O)[C@H](CC(=O)O)NC(=O)[C@H](Cc1c[nH]cn1)NC(=O)[C@H](CSSC[C@H](NC(C)=O)C(=O)N[C@@H](Cc1ccc(O)cc1)C(=O)NCC(=O)N[C@@H](CCCNC(=N)N)C(=O)N[C@@H](CCCCN)C(=O)N[C@@H](CCCCN)C(=O)N[C@@H](CCCNC(=N)N)C(=O)N[C@@H](CCCNC(=N)N)C(=O)N[C@@H](CCC(N)=O)C(=O)N[C@@H](CCCNC(=N)N)C(=O)N[C@@H](CCCNC(=N)N)C(=O)N[C@@H](CCCNC(=N)N)C(=O)O)NC(C)=O)C(=O)NCC(=O)N[C@@H](Cc1ccc(O)cc1)C(=O)N[C@@H](CC(=O)O)C(N)=O [KAI-9706 carrier Ac—OH cargo Ac—NH2] | 48%
